19 compounds from US20120184542A1, “PYRIDO PYRIMIDINES” (priority 2011, published 2012) can be followed below.

The target of one assay is T1, Human DYRK1B (Homo sapiens, UniProt Q9Y463).
T1 construct: purchased Invitrogen PR8350B (former PV4649)
Kind of assay: DYRK1B Kinase TR-FRET (IMAP-Tb) Assay. It is filed as biochemical. As to conditions: for IC50: TR-FRET (IMAP-Tb), ATP 70 μM, 37° C. 60 minutes; for inhibition at 10 µM: read-out: % inhibition of DYRK1B at 10 μM test compound concentration.

Assay [1] deals with SW620 human colon cancer cells. Description: SW620 Cell Viability Assay. The conditions noted are these: Homo sapiens, SW-620, 96 h, read-out: Cellular EC50 (μM) SW620. It is filed as cell-based. As for the experimental part: Some cells (S—) were allowed to attach for 24 hrs, serum starved for 48 hrs, and then followed with drug treatments Test Compound Solutions were Prepared in Regular Corresponding Media Supplemented with Serum 2. […] Viability Assay: This assay was performed as follows: • Transfer 50 μL of test compound solution per well from the test compound plate onto the cell plate prepared in Step #1. • Mix the plate with treated cells by pipetting up and down three times with 200 μL multi-channel pipette. • Incubate the cells in 5% CO2 incubator @ 37° C. for 4 days. • Run the CellTiter-Glo™ Luminescent Cell Viability Assay.

The target of a further assay is T2, Human DYRK1A (Homo sapiens, UniProt Q13627).
T2 construct: purchased Invitrogen PV3997
Description: DYRK1A Kinase TR-FRET (IMAP-Tb) Assay. Format: biochemical. The conditions noted are these: for IC50: TR-FRET (IMAP-Tb), ATP 70 μM, 37° C. 60 minutes, read-out: Enzyme IC50 (μM) DYRK1A. From the text: The kinase TR-FRET (IMAP-Tb) assay uses a fluorescence labeled substrate peptide in the kinase reaction. Upon phosphorylation by the kinase, phosphopeptide is produced, which will be detected by the binding solution provided in IMAP TR-FRET binding kit. After the completion of the kinase reaction, the reaction will be stopped by adding the binding solution containing terbium tracer. This tracer is immobilized on the surface of the IMAP beads, which also contain metal ions on the beads that bind to the phospho-groups of the products. Thus the phosphorylated product of the reaction can enter into close proximity to the tracer, producing resonance energy transfer. Due to the long lifetime of terbium (Tb) fluorescence the detection can be run in time resolved mode, which virtually eliminates fluorescence interference from assay components or compounds.
The TR-FRET signal measurement from this assay, given as an IC50 measurement, is a measure of a test compound's ability to interfere with the phosphorylation of the peptide substrate, that is it inhibits the phosphorylation of the substrate peptide by DYRK1A, and is thus a measure of the test compound's ability to inhibit the activity of DYRK1A.
• 1. Human DYRK1A: from Invitrogen. Part #PV3997 • 2. Substrate Peptide: […] • 3. IMAP TR-FRET IPP Explorer Kit: from Molecular Devices. Part #R8157 • 4. Kinase Assay Buffer (KAB): 10 mM HEPES pH 7.0, 50 mM NaCl, 5 mM MgCl2, 1 mM DTT, 1 mM NaVO4, 200 μg/mL BSA (0.02%) • 5. Assay Plate: Remp polypropylene clear 384-well microplate. […] Detection Plate: Costa black 384-well microplate.
• 1. Transfer 1.5 μL of 20× compound solution to each well of an assay plate. • 2. Add to each well 22.5 μL of KAB Buffer. • 3. Add to each well 3 μL of the solution of DYRK1A and ATP. […] Add to each well 3 μL of the substrate peptide. The assay concentration is 1.0 μM • 5. Incubate the assay plates at 37° C. for 60 minutes. • 6. Add 18 μL of Detection Solution (1:800 diluted Progress bead stock, 1:400 diluted Tb stock, 80% Buffer A, and 20% Buffer B) into each well of detection plates. • 7. Transfer 6 μL of assay solution from the assay plate to the detection plate. • 8. Shake detection plates for 30 minutes. • 9. Read plates in Envision with wavelength set at excitation 340 nm for Tb, emission 490 nm, and […].
Background: TR-FRET usually uses a lanthanide donor and a delayed reading to cut background.

[2] abbreviates: read-out: Enzyme IC50 (μM) DYRK1B.

Where a name gives a salt, the structure may show the parent alone. Read-outs that look alike come from different tables or passages of the source.

T1 sequence (Q9Y463 whole entry): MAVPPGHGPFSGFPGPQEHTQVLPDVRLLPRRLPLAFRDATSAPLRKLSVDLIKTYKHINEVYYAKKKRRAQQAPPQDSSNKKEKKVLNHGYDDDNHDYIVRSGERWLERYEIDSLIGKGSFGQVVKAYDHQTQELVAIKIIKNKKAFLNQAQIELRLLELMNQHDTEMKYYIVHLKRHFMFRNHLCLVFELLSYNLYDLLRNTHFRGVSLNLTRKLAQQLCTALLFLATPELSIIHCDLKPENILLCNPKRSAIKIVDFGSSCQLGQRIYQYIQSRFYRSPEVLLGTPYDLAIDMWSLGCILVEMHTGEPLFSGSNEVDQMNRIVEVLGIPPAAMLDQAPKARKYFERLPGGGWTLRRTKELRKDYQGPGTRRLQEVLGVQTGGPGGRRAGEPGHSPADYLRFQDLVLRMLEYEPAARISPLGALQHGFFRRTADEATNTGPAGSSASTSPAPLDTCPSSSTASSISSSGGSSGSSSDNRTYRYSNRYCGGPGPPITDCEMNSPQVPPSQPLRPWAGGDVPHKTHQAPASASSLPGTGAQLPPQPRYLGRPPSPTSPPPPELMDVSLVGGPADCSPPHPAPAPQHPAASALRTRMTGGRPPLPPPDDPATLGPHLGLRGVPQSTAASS

As a reminder, the IC50 is the concentration that inhibits the measured activity by half. As a reminder, the EC50 is the concentration that produces a half-maximal response. Turning to `CN1CCN(CCNc2ncc3cc(C(=O)Nc4cc(C(=O)NC(CCN)c5ccccc5)ccc4Cl)c(=O)[nH]c3n2)CC1` (centres unmarked) [Example 132, N-(5-(3-Amino-1-phenylpropylcarbamoyl)-2-chlorophenyl)-2-(2-(4-methylpiperazin-1-yl)ethylamino)-7-oxo-7,8-dihydropyrido[2,3-d]pyrimidine-6-carboxamide hydrochloride], the IC50 on Human DYRK1B (Enzyme IC50 (μM) DYRK1B) was found to be 0.0306 µM. Further, in assay [1], the EC50 turned out to be 0.228 µM.

For `COC(=O)c1ccc(Cl)c(NC(=O)c2cc3cnc(OC)nc3[nH]c2=O)c1` [Example 21, 4-Chloro-3-[(2-methoxy-7-oxo-7,8-dihydro-pyrido[2,3-d]pyrimidine-6-carbonyl)-amino]-benzoic acid methyl ester], the IC50 at Human DYRK1B (Enzyme IC50 (μM) DYRK1B) is 0.135 µM. In addition, in assay [1], the EC50 amounted to 3.34 µM.

`COc1ncc2cc(C(=O)Nc3cc(C(=O)NCCCN)ccc3Cl)c(=O)[nH]c2n1` [Example 164, N-(5-(3-Aminopropylcarbamoyl)-2-chlorophenyl)-2-methoxy-7-oxo-7,8-dihydropyrido[2,3-d]pyrimidine-6-carboxamide]: on Human DYRK1B (setting [2]), the IC50 came to 0.774 µM. Moreover, the EC50 in assay [1] was over 10 µM.

Consider `COc1ncc2cc(C(=O)Nc3cc(C(=O)N[C@H](CCN)c4ccccc4)ccc3Cl)c(=O)[nH]c2n1` [Example 171, (R)—N-(5-(3-Amino-1-phenylpropylcarbamoyl)-2-chlorophenyl)-2-methoxy-7-oxo-7,8-dihydropyrido[2,3-d]pyrimidine-6-carboxamide], for which the IC50 on Human DYRK1B (setting [2]) was 0.017 µM. Moreover, the concentration for a half-maximal effect (EC50) in assay [1] was found to be 0.446 µM.

As to `COC(=O)c1ccc(F)c(NC(=O)c2cc3cnc(OC)nc3[nH]c2=O)c1` [Example 43, 4-Fluoro-3-[(2-methoxy-7-oxo-7,8-dihydro-pyrido[2,3-d]pyrimidine-6-carbonyl)-amino]-benzoic acid methyl ester], on Human DYRK1B, the inhibition at 10 µM is 41%. Besides, at Human DYRK1A, the IC50 was found to be 9.8 µM.

For the compound `COc1ncc2cc(C(=O)Nc3cc(C(=O)OCc4ccccc4)ccc3C)c(=O)[nH]c2n1` [Example 26, 3-[(2-Methoxy-7-oxo-7,8-dihydro-pyrido[2,3-d]pyrimidine-6-carbonyl)-amino]-4-methyl-benzoic acid benzyl ester], the figures for the IC50 at Human DYRK1B (setting [2]) and at Human DYRK1A were 0.496 µM and 0.323 µM, respectively.

In the case of `COc1ncc2cc(C(=O)Nc3cc(C(=O)N[C@@H](CCO)c4ccccc4)ccc3Cl)c(=O)[nH]c2n1` [Example 159, (S)—N-(2-Chloro-5-(3-hydroxy-1-phenylpropylcarbamoyl)phenyl)-2-methoxy-7-oxo-7,8-dihydropyrido[2,3-d]pyrimidine-6-carboxamide], the inhibition at 10 µM at Human DYRK1B turned out to be 22%. For the same compound, on Human DYRK1A, the IC50 came to 3.88 µM.

Take `CC(C)(C)CNC(=O)c1ccc(Cl)c(NC(=O)c2cc3cnc(N4CCOCC4)nc3[nH]c2=O)c1` [Example 142, 2-Morpholin-4-yl-7-oxo-7,8-dihydro-pyrido[2,3-d]pyrimidine-6-carboxylic acid [2-chloro-5-(2,2-dimethyl-propylcarbamoyl)-phenyl]-amide]: on Human DYRK1B, the inhibition at 10 µM came out at 44%. Moreover, the IC50 on Human DYRK1A was determined as 2.43 µM.

On to `CN1CCN(c2ncc3cc(C(=O)Nc4cc(C(=O)NCc5cccc(F)c5)ccc4Cl)c(=O)[nH]c3n2)CC1` [Example 177, 2-(4-Methyl-piperazin-1-yl)-7-oxo-7,8-dihydro-pyrido[2,3-d]pyrimidine-6-carboxylic acid [2-chloro-5-(3-fluoro-benzylcarbamoyl)-phenyl]amide], for which the IC50 on Human DYRK1B (setting [2]) was found to be 0.176 µM; at Human DYRK1A, 0.0715 µM.

Take `COc1ncc2cc(C(=O)Nc3cc(C(=O)OCc4ccccc4)ccc3Cl)c(=O)[nH]c2n1` [Example 50, 4-Chloro-3-[(2-methoxy-7-oxo-7,8-dihydro-pyrido[2,3-d]pyrimidine-6-carbonyl)-amino]-benzoic acid benzyl ester]: the inhibition at 10 µM on Human DYRK1B is 3%; at Human DYRK1A (read-out: % inhibition of DYRK1A at 10 μM test compound concentration), 30%.

Turning to `COC(=O)c1ccc(Cl)c(NC(=O)c2cc3cnc(N4CCCCC4)nc3[nH]c2=O)c1` [Example 34, 4-Chloro-3-[(7-oxo-2-piperidin-1-yl-7,8-dihydro-pyrido[2,3-d]pyrimidine-6-carbonyl)-amino]-benzoic acid methyl ester], the IC50 at Human DYRK1B (setting [2]) came out at 0.06 µM; on Human DYRK1A it was 0.05 µM.

With `COC(=O)c1ccc(Cl)c(NC(=O)c2cc3cnc(NCCO)nc3[nH]c2=O)c1` [Example 41, 4-Chloro-3-{[2-(2-hydroxy-ethylamino)-7-oxo-7,8-dihydro-pyrido[2,3-d]pyrimidine-6-carbonyl]amino}-benzoic acid methyl ester], the IC50 on Human DYRK1B (setting [2]) amounted to 0.07 µM; at Human DYRK1A, 0.0796 µM.

Regarding `CC(C)(O)CNc1ncc2cc(C(=O)Nc3cc(C(=O)NC(CCO)c4ccccc4)ccc3Cl)c(=O)[nH]c2n1` (centres unmarked) [Example 154, N-(2-Chloro-5-(3-hydroxy-1-phenylpropylcarbamoyl)phenyl)-2-(2-hydroxy-2-methylpropylamino)-7-oxo-7,8-dihydropyrido[2,3-d]pyrimidine-6-carboxamide], the half-inhibitory concentration (IC50) at Human DYRK1B (setting [2]) stood at 0.078 µM; at Human DYRK1A, 0.075 µM.

In the case of `O=C(NCc1cccc(Cl)c1)c1cc(NC(=O)c2cc3cnc(N4CCOCC4)nc3[nH]c2=O)c(Cl)cc1F` [Example 144, 2-Morpholin-4-yl-7-oxo-7,8-dihydro-pyrido[2,3-d]pyrimidine-6-carboxylic acid [2-chloro-5-(3-chloro-benzylcarbamoyl)-4-fluoro-phenyl]-amide], the inhibition at 10 µM on Human DYRK1B turned out to be 23%. Besides, the IC50 on Human DYRK1A was determined as 0.205 µM.

Regarding `COc1ncc2cc(C(=O)Nc3cc(C(=O)NC(CN)C4CCCCC4)ccc3Cl)c(=O)[nH]c2n1` (centres unmarked) [Example 192, N-(5-(2-Amino-1-cyclohexylethylcarbamoyl)-2-chlorophenyl)-2-methoxy-7-oxo-7,8-dihydropyrido[2,3-d]pyrimidine-6-carboxamide], the IC50 on Human DYRK1B (setting [2]) worked out at 0.047 µM; on Human DYRK1A it was 0.036 µM.

Consider `COc1ncc2cc(C(=O)Nc3cc(C(=O)NCc4ccccc4)ccc3C)c(=O)[nH]c2n1` [Example 27, 2-Methoxy-7-oxo-7,8-dihydro-pyrido[2,3-d]pyrimidine-6-carboxylic acid (5-benzylcarbamoyl-2-methyl-phenyl)-amide], for which the IC50 was found to be 2 µM at Human DYRK1B (setting [2]) and 0.376 µM at Human DYRK1A.

Regarding `CC(C)(O)CNc1ncc2cc(C(=O)Nc3cc(C(=O)NC(CO)c4ccccc4)ccc3Cl)c(=O)[nH]c2n1` (centres unmarked) [Example 153, N-(2-Chloro-5-(2-hydroxy-1-phenylethylcarbamoyl)phenyl)-2-(2-hydroxy-2-methylpropylamino)-7-oxo-7,8-dihydropyrido[2,3-d]pyrimidine-6-carboxamide], the IC50 on Human DYRK1B (setting [2]) was determined as 0.185 µM; at Human DYRK1A it was 0.0931 µM.

Regarding `CN(C)c1ncc2cc(C(=O)Nc3cc(C(=O)NCc4cccc(Cl)c4)ccc3Cl)c(=O)[nH]c2n1` [Example 155, N-(2-Chloro-5-(3-chlorobenzylcarbamoyl)phenyl)-2-(dimethylamino)-7-oxo-7,8-dihydropyrido[2,3-d]pyrimidine-6-carboxamide], the 50% inhibitory concentration (IC50) was found to be 0.0923 µM on Human DYRK1B (setting [2]) and 0.0485 µM on Human DYRK1A.

On to `C[C@@H](NC(=O)c1ccc(Cl)c(NC(=O)c2cc3cnc(N4CCOCC4)nc3[nH]c2=O)c1)c1ccccc1` [Example 156, 2-Morpholin-4-yl-7-oxo-7,8-dihydro-pyrido[2,3-d]pyrimidine-6-carboxylic acid [2-chloro-5-((R)-1-phenyl-ethylcarbamoyl)-phenyl]-amide], for which the IC50 on Human DYRK1B (setting [2]) was 0.586 µM; at Human DYRK1A, 0.189 µM.
